# Reference: ChEMBL document CHEMBL1201862, “PubChem BioAssay data set” (2004)
# Calls of active or inactive are those of the source.
# Columns and labels:
# [1] = molecular target: T1, Glycogen synthase kinase-3 beta (Homo sapiens, UniProt P49841); experiment: inhibition of human GSK3B activity – biochemical, microfluidics, dry powder samples, set 2, dose response (AID 623989); type: functional
# [2] = molecular target: Glycogen synthase kinase-3 alpha (Homo sapiens, UniProt P49840); experiment: GSK3A enzyme blockers, homolog specificity check – biochemical, microfluidics, dry powder samples, set 2, selectivity assay for GSK3beta inhibitor project, dose response (AID 623978); type: functional
# Chain of Glycogen synthase kinase-3 alpha (P49840 whole entry): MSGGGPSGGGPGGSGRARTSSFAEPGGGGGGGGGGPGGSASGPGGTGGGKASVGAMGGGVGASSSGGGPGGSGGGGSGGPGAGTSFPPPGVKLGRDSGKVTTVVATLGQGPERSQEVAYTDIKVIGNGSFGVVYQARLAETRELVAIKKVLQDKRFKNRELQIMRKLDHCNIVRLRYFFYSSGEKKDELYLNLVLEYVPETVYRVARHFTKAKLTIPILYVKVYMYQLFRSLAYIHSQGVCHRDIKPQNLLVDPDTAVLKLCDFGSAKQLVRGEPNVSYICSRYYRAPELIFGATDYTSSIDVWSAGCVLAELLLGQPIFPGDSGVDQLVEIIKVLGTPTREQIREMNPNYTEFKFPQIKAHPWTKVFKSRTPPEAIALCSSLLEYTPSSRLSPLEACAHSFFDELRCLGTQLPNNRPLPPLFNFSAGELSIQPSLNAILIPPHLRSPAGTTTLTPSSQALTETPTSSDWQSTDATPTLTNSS
# [3] = Vero cell cytotoxicity, dose response, cytotoxicity control for M. tuberculosis growth inhibitor project, Vero cells, purified and synthesized compounds, set 4 (AID 504854); type: functional; conditions: Mycobacterium tuberculosis
# [4] = THP-1 cell cytotoxicity, dose response, cytotoxicity control, set 3 (AID 504852); type: functional; conditions: Mycobacterium tuberculosis
# [5] = THP-1 cell cytotoxicity, cytotoxicity control, set 4 (AID 504911); type: functional; conditions: Mycobacterium tuberculosis
# [6] = molecular target: T2, High affinity choline transporter 1 (Homo sapiens, UniProt Q9GZV3); experiment: human choline transporter potentiators, potency – cell-based, 10-point CRC, membrane potential dye, dose response (AID 602376); type: functional
# T2 sequence (Q9GZV3 whole entry): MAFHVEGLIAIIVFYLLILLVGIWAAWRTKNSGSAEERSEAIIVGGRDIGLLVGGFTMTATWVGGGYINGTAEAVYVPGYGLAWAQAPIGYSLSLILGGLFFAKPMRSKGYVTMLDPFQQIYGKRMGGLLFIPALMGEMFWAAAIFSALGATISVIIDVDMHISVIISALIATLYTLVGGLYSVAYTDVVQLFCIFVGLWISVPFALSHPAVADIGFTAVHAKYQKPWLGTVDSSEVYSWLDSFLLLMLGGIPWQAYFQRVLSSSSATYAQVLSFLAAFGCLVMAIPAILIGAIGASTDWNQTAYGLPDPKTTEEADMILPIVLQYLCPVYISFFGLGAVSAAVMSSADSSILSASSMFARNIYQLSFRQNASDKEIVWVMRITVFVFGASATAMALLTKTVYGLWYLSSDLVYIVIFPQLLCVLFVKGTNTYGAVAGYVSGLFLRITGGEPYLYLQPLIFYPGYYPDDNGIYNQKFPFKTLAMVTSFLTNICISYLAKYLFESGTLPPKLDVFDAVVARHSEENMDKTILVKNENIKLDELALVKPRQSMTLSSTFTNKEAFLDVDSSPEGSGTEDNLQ
# INS1 [7] = experiment: suppression of NO production in INS-1E cells – cell-based, Griess absorbance, dry powder, dose response (AID 488866); type: functional; conditions: Rattus norvegicus
# INS1 [8] = experiment: beta-cell survival under cytokine stress – INS-1E, ATP luminescence, dry powder, dose response (AID 488844); type: functional, cell-based; conditions: Rattus norvegicus
# INS1 [9] = experiment: INS-1E mitochondrial potential rescue under cytokines – cell-based, JC-1 fluorescence ratio, dry powder, dose response (AID 488931); type: functional; conditions: Rattus norvegicus
# [10] = suppression of NO production in INS-1E cells – cell-based, Griess absorbance, dry powder, set 3, dose response (AID 488870); type: functional; conditions: Rattus norvegicus
# INS1 [11] = experiment: suppression of NO production in INS-1E cells – cell-based, Griess absorbance, dry powder, set 2, dose response (AID 488868); type: functional; conditions: Rattus norvegicus
# LIM domain kinase 1 = LIM domain kinase 1 (Homo sapiens, UniProt P53667); experiment: Navigating the Kinome. Panel member name: LIMK1; type: functional
# [12] = molecular target: Cyclin-dependent kinase 8 (Homo sapiens, UniProt P49336); experiment: Navigating the Kinome. Panel member name: CDK8; type: functional
# [13] = molecular target: Serine/threonine-protein kinase Chk1 (Homo sapiens, UniProt O14757); type: functional;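 note: measured as one member of a kinome-wide kinase profiling panel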
# Chain of Serine/threonine-protein kinase Chk1 (O14757 whole entry): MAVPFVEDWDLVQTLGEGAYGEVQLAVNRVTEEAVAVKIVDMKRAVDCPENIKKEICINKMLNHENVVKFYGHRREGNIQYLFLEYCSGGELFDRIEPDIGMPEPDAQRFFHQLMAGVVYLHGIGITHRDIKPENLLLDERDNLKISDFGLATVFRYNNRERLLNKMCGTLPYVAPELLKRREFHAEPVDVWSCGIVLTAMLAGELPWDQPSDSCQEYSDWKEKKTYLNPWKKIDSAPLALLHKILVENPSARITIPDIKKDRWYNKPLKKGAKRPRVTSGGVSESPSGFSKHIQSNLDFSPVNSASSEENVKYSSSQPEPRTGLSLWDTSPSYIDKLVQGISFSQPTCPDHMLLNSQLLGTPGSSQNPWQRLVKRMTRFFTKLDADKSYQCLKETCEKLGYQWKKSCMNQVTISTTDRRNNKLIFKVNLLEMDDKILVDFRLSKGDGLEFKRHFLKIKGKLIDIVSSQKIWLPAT
# [14] = molecular target: Cyclin-dependent kinase 9 (Homo sapiens, UniProt P50750); type: functional;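 note: value from the CDK9 entry of a kinome-spanning kinase panel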
# Chain of Cyclin-dependent kinase 9 (P50750 whole entry): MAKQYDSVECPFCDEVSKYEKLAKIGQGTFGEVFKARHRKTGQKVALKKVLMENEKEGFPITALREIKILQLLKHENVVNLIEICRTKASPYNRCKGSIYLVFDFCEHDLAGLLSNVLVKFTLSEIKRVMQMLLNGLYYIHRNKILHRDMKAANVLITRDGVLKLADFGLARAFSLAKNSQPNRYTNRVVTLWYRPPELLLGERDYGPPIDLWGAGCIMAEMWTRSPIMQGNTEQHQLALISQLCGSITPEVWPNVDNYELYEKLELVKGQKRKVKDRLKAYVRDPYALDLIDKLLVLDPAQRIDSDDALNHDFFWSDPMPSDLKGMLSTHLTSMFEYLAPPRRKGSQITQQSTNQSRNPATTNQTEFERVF
# [15] = molecular target: Cyclin-dependent kinase 7 (Homo sapiens, UniProt P50613); type: functional;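 note: value comes from a kinome-wide kinase profiling panel in which CDK7 is one member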
# Chain of Cyclin-dependent kinase 7 (P50613 whole entry): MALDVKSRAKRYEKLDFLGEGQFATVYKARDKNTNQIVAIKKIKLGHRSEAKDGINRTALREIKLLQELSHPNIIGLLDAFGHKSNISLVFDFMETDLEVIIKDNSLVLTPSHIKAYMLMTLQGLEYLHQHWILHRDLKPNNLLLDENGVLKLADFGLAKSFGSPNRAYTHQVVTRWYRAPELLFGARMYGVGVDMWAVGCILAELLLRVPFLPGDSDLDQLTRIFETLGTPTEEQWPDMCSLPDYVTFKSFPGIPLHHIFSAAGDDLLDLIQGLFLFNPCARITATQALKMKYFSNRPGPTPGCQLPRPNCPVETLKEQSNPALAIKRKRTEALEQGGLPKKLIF
# [16] = molecular target: Dual specificity protein kinase CLK4 (Homo sapiens, UniProt Q9HAZ1); type: functional
# Chain of Dual specificity protein kinase CLK4 (Q9HAZ1 whole entry): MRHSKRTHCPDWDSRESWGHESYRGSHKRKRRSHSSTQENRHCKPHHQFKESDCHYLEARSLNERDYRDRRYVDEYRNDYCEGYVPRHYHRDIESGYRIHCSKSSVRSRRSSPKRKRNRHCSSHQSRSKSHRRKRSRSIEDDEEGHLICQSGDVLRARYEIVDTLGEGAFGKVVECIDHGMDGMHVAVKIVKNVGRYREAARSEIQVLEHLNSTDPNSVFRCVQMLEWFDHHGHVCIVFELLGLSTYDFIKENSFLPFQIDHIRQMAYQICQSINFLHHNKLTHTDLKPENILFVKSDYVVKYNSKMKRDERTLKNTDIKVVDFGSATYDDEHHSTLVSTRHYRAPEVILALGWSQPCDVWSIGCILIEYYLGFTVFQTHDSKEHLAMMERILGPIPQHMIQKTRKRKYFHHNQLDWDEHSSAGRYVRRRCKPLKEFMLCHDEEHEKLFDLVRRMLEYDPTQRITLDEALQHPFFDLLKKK
# [17] = molecular target: Rho-associated protein kinase 1 (Homo sapiens, UniProt Q13464); type: functional;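 note: measured within a broad kinome-wide panel profiling many kinases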
# [18] = molecular target: T1, Glycogen synthase kinase-3 beta; type: functional
# [19] = molecular target: Serine/threonine-protein kinase pim-1 (Homo sapiens, UniProt P11309); type: functional
# [20] = molecular target: Neuropeptides B/W receptor type 1 (Homo sapiens, UniProt P48145); experiment: human NPBW1 receptor blockade, IC50 – cell-based, fluorescence, dose response, set 5, late-stage follow-up (AID 588566); type: functional
# Chain of Neuropeptides B/W receptor type 1 (P48145 whole entry): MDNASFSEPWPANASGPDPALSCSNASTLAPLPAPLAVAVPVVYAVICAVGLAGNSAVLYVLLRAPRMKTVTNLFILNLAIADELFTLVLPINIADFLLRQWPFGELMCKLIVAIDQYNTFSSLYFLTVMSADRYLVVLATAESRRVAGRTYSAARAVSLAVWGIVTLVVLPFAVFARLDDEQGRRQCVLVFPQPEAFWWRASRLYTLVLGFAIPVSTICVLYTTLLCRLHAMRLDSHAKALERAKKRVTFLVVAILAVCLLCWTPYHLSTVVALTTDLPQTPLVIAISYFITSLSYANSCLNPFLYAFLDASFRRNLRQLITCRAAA
# [21] = molecular target: Melanin-concentrating hormone receptor 1 (Homo sapiens, UniProt Q99705); experiment: Late-stage fluorescence-based counterscreen for antagonists of the G-protein coupled receptor 7 (GPR7): cell-based dose response assay to identify antagonists of the melanin-concentrating hormone receptor 1 (MCHR1) Set 5.; type: functional
# Chain of Melanin-concentrating hormone receptor 1 (Q99705 whole entry): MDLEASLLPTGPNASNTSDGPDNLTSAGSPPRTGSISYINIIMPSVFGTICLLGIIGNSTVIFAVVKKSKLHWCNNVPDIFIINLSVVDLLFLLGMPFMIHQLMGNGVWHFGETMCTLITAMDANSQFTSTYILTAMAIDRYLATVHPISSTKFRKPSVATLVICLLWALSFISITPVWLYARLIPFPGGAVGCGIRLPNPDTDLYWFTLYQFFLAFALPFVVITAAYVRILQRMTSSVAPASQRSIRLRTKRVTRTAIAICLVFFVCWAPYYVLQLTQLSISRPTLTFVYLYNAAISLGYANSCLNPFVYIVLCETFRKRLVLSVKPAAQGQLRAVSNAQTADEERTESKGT
# [22] = molecular target: T3, Protein kinase C zeta type (Homo sapiens, UniProt Q05513); type: functional;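 note: measured as one member of a broad kinase profiling panel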
# T3 sequence (Q05513 whole entry): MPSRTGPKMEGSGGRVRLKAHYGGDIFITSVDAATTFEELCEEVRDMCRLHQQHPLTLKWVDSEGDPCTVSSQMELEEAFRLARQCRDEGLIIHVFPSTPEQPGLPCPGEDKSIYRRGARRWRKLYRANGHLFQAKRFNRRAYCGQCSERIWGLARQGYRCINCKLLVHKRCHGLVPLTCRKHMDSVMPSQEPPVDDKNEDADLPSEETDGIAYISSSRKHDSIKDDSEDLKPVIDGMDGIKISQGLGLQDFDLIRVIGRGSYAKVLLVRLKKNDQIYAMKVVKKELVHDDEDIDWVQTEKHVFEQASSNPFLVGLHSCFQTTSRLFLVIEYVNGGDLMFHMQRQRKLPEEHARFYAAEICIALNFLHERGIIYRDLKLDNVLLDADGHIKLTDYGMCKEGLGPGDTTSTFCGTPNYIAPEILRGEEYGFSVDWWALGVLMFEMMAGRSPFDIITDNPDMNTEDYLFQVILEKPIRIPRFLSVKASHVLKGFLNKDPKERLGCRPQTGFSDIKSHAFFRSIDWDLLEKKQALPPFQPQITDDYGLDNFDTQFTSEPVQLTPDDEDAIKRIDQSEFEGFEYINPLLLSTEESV
# [23] = molecular target: T4, Lymphokine-activated killer T-cell-originated protein kinase (Homo sapiens, UniProt Q96KB5); type: functional;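 note: value comes from a kinase panel screen in which TOPK was one of the panel members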
# T4 sequence (Q96KB5 whole entry): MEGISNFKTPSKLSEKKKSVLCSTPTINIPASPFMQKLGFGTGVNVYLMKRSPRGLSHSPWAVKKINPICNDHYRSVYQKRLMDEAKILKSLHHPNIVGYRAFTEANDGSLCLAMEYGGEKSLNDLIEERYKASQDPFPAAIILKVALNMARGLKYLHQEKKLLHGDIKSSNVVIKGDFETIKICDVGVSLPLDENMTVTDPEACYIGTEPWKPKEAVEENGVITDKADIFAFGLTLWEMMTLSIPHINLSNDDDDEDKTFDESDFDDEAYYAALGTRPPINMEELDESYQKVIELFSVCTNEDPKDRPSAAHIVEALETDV
# [24] = molecular target: Cyclin-dependent kinase 1 (Homo sapiens, UniProt P06493); type: functional;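 note: Kinome-wide panel profiling, with the target listed as panel member CDC2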
# Chain of Cyclin-dependent kinase 1 (P06493 whole entry): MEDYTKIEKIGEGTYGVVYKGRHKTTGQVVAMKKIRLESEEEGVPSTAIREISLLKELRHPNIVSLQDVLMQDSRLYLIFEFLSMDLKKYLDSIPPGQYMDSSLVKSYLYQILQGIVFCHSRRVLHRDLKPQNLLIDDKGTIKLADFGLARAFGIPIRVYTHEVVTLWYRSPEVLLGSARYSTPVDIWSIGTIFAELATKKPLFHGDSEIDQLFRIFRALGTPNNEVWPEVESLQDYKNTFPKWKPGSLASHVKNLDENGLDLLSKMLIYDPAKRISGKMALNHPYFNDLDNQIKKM
# [25] = molecular target: MAP kinase-activated protein kinase 3 (Homo sapiens, UniProt Q16644); type: functional;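 note: value comes from a kinome-wide profiling panel in which MAPKAPK3 is one of the panel members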
# [26] = molecular target: Protein kinase C gamma type (Homo sapiens, UniProt P05129); type: functional
# [27] = molecular target: Cell division cycle 7-related protein kinase (Homo sapiens, UniProt O00311); type: functional;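 note: value obtained from a kinome-wide kinase panel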
# Chain of Cell division cycle 7-related protein kinase (O00311 whole entry): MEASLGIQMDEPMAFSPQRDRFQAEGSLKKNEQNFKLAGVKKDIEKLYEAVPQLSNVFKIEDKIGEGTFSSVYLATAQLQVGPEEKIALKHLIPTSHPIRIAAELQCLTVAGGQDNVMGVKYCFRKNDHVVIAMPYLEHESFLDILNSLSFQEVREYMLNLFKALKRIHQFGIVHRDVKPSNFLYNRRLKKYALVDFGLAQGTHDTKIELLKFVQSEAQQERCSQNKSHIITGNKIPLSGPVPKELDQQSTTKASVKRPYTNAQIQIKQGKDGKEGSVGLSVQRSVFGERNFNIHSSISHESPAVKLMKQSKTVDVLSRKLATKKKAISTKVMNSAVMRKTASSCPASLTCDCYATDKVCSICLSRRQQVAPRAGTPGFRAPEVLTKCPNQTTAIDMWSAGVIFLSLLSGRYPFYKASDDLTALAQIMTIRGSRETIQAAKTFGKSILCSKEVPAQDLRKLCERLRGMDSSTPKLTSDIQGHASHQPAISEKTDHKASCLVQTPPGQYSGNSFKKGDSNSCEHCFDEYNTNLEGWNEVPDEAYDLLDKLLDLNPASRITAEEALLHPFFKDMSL
# [28] = molecular target: T5, Dual specificity tyrosine-phosphorylation-regulated kinase 3 (Homo sapiens, UniProt O43781); type: functional;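 note: measured as one member of a broad kinase panel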
# T5 sequence (O43781 whole entry): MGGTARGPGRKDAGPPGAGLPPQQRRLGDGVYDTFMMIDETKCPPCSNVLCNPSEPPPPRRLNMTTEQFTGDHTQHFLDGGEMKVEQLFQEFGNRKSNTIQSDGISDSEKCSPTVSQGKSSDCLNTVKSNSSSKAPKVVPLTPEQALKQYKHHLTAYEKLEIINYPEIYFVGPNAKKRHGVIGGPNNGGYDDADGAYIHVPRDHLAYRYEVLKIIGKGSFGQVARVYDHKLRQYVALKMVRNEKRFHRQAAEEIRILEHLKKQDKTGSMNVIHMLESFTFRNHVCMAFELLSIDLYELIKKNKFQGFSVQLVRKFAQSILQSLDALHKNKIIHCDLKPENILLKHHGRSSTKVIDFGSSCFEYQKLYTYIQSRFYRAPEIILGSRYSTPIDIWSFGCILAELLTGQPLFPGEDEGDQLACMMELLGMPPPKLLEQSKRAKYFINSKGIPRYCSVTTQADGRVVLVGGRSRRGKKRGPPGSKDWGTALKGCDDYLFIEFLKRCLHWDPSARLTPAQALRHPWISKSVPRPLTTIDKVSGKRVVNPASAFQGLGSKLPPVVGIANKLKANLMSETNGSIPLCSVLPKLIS
# [29] = molecular target: G protein-coupled receptor kinase 5 (Homo sapiens, UniProt P34947); experiment: Navigating the Kinome. Panel member name: GPRK5; type: functional
# [30] = molecular target: T6, Testis-specific serine/threonine-protein kinase 2 (Homo sapiens, UniProt Q96PF2); type: functional;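 note: part of the Navigating the Kinome panel, target entry STK22B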
# T6 sequence (Q96PF2 whole entry): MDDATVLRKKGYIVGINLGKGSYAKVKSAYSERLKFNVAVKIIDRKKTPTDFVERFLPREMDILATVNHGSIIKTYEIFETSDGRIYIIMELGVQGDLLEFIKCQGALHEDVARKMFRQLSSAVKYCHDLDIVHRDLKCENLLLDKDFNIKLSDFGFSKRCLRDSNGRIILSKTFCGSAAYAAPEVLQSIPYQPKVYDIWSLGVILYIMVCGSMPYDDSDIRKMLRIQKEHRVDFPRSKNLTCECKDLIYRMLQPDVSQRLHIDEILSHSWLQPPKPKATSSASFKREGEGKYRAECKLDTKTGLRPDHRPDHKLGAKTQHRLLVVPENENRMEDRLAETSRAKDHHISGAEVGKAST
# [31] = molecular target: PAS domain-containing serine/threonine-protein kinase (Homo sapiens, UniProt Q96RG2); type: functional
# [32] = molecular target: Eukaryotic elongation factor 2 kinase (Homo sapiens, UniProt O00418); type: functional
# [33] = molecular target: Serine/threonine-protein kinase PLK4 (Homo sapiens, UniProt O00444); type: functional;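 note: PLK4 measured as one member of a kinome-wide kinase profiling panel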
# [34] = molecular target: Serine/threonine-protein kinase PLK3 (Homo sapiens, UniProt Q9H4B4); type: functional
# [35] = molecular target: Interleukin-1 receptor-associated kinase 1 (Homo sapiens, UniProt P51617); type: functional;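 note: IRAK1 tested as one member of a kinome panel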
# Chain of Interleukin-1 receptor-associated kinase 1 (P51617 whole entry): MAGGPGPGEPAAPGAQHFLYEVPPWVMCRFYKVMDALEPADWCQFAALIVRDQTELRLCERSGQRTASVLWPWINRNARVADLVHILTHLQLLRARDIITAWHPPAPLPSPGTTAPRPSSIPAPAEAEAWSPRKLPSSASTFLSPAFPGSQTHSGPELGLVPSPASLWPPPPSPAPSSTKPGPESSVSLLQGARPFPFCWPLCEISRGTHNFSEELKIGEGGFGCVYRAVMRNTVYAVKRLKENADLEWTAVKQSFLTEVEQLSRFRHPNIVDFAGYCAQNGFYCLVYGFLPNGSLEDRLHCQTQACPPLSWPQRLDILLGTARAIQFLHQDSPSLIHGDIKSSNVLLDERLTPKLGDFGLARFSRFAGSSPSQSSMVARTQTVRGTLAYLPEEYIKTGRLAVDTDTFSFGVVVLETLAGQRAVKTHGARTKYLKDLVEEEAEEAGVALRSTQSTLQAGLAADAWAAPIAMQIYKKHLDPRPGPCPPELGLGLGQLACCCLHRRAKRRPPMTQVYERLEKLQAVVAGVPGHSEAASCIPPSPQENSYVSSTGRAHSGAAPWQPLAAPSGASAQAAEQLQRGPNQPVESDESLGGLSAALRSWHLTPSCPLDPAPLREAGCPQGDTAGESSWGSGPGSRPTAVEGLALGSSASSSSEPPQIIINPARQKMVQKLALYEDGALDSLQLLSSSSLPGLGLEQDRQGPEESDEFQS
# T1 sequence (P49841 whole entry): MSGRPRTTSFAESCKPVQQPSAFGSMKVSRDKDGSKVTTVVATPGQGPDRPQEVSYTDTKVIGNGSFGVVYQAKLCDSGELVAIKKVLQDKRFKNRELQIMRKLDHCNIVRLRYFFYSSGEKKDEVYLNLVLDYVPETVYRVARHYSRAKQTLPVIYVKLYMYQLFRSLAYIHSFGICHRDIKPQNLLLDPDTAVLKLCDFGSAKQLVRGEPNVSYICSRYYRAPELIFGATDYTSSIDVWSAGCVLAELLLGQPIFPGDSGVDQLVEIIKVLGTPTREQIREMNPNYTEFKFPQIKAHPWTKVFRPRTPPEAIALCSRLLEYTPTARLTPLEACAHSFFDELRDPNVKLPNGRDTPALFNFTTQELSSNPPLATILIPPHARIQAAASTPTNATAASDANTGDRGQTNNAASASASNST
compound,measurement,setting,value
Nc1nc(NCC2CCCO2)nc(Nc2ccc(Cl)cc2)c1[N+](=O)[O-] (stereo unspecified),AC50,[1],0.429 µM (active)
same,AC50,[2],1.56 µM (active)
COC(=O)C(C)Oc1ccc(Cc2ncc(C(F)(F)F)cc2Cl)cc1 (stereo unspecified),CC50,[3],> 100 µM (active)
same,CC50,[4],> 100 µM (active)
same,CC50,[5],> 100 µM (active)
CN(Cc1cccc(F)c1)C(=O)c1ccccc1Sc1ccccc1C#N,EC50,[6],15 µM (active)
COc1ccc(S(=O)(=O)N(C)C[C@@H]2Oc3c(NC(=O)Nc4cccc5ccccc45)cccc3C(=O)N([C@@H](C)CO)C[C@H]2C)cc1Cl,AC50,INS1 [7],46.3 µM (active)
same,AC50,INS1 [8],27.3 µM (active)
same,AC50,INS1 [9],147 µM (active)
same,AC50,[10],52.8 µM (active)
same,AC50,INS1 [11],39.5 µM (active)
O=C(C=Cc1ccc(Br)cc1)Nc1cccc2cnccc12,Ki,LIM domain kinase 1,3.16 µM (active)
same,Ki,[12],2 µM (active)
same,Ki,[13],2 µM (active)
same,Ki,[14],1.58 µM (active)
same,Ki,[15],1.58 µM (active)
same,Ki,[16],1.58 µM (active)
same,Ki,[17],3.16 µM (active)
same,Ki,[18],2 µM (active)
same,Ki,[19],2.51 µM (active)
COc1ccc(Oc2c(F)cnn(Cc3cccc4ccccc34)c2=O)cc1,IC50,[20],2.07 µM (active)
same,IC50,[21],8.86 µM (active)
CNC(=O)c1ccccc1Sc1ccc2c(C=Cc3ccccn3)n[nH]c2c1,Ki,[22],> 7.94 µM (inactive)
same,Ki,[23],> 10 µM (inactive)
same,Ki,[24],> 7.94 µM (inactive)
same,Ki,[25],> 10 µM (inactive)
same,Ki,[26],> 7.94 µM (inactive)
same,Ki,[27],> 1.26 µM (inactive)
same,Ki,[28],> 6.31 µM (inactive)
same,Ki,[29],> 3.98 µM (inactive)
same,Ki,[30],> 1.58 µM (inactive)
same,Ki,[31],> 1.58 µM (inactive)
same,Ki,[32],> 3.98 µM (inactive)
CCCn1c(=O)c2[nH]c(-c3cnn(Cc4cccc(C(F)(F)F)c4)c3)nc2n(CC)c1=O [GS 6201],Ki,[33],3.98 µM (active)
same,Ki,[34],7.94 µM (active)
same,Ki,[35],7.94 µM (active)
